# Measured values reported in patent US8865688B2, “Compositions and methods for treatment of bowel diseases with granulated mesalamine” (priority 2008, dated 2014).
# Values joined by “and” are separate entries in the source; they are usually repeats but may differ in a detail not shown here. Equal values may be shown once. Read-outs that look alike come from different tables or passages of the source.
# Key:
# [1] = Effect of high fat meal on absorption of 1.6 g mesalamine granules in sachet, crossover, healthy subjects; format: in vivo, human; details: for Effect of high fat meal on plasma Cmax: fed vs fasted, 80%:125% rule
# CYP1A2 = molecular target: T1, CYP1A2 (Homo sapiens, UniProt P05177); assay: In vitro drug-drug interaction study, human liver microsomes; format: in vitro ADME
# T1 construct: In an in vitro study using human liver microsomes; from tissue; host or cells: human liver microsomes
# T1 sequence (P05177 1-516): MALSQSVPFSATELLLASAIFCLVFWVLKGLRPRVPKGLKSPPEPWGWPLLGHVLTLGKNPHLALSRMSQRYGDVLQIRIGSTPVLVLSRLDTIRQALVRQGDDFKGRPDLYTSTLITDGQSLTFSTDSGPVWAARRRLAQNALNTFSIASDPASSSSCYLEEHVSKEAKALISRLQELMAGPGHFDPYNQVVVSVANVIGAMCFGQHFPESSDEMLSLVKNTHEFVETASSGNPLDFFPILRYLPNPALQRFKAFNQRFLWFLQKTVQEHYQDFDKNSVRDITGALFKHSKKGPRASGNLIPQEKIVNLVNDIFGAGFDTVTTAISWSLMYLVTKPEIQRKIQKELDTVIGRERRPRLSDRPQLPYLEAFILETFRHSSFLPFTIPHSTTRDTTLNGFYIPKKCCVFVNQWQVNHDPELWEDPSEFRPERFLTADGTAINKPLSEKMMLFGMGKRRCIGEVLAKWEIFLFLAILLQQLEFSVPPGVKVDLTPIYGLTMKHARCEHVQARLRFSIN
# CYP2C9 = CYP2C9 (Homo sapiens, UniProt P11712); assay: as above; format: in vitro ADME
# CYP2C9, sequence (P11712 whole entry): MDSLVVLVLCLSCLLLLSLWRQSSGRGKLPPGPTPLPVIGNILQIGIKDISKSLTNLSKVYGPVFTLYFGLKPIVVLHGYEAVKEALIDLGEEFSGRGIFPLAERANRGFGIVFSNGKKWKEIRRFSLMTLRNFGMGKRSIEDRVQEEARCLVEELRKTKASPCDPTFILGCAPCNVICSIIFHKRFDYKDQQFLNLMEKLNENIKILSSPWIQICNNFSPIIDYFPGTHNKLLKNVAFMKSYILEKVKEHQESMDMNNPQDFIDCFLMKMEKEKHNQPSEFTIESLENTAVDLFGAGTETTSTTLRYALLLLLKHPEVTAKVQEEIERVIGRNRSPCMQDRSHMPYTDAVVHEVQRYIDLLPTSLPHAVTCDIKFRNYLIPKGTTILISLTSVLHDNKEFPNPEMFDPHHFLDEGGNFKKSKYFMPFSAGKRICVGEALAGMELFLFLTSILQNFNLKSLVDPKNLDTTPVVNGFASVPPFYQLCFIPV
# CYP2C19 = CYP2C19 (Homo sapiens, UniProt P33261); assay: as above; format: in vitro ADME
# CYP2C19, sequence (P33261 whole entry): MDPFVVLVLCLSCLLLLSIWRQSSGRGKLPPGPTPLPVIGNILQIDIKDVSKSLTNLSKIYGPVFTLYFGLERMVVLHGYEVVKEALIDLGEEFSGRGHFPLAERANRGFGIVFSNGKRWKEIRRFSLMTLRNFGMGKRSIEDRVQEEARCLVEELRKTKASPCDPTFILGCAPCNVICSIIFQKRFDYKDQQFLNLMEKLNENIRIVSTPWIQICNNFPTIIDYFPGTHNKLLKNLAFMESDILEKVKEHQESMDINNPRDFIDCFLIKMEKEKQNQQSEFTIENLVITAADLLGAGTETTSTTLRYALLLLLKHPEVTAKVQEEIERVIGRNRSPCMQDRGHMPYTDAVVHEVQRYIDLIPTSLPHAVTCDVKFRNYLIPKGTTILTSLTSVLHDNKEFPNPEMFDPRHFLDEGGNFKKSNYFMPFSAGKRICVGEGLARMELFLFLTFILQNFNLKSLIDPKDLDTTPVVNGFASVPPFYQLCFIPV
# CYP2D6 = CYP2D6 (Homo sapiens, UniProt P10635); assay: as above; format: in vitro ADME
# CYP2D6, sequence (P10635 whole entry): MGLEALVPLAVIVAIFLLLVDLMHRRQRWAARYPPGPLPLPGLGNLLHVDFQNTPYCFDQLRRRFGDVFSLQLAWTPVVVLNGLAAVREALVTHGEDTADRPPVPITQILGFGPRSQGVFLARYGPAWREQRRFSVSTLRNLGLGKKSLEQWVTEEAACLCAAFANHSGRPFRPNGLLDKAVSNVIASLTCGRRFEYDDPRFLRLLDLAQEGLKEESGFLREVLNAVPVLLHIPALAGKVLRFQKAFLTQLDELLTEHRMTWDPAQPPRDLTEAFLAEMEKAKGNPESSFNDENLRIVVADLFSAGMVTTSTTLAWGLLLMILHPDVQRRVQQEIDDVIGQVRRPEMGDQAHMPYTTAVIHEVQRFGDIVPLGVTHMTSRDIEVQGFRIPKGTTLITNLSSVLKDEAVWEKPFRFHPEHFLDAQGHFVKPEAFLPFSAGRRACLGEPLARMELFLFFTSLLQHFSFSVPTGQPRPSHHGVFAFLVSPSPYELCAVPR
# CYP3A4 = CYP3A4 (Homo sapiens, UniProt P08684); assay: as above; format: in vitro ADME
# CYP3A4, sequence (P08684 whole entry): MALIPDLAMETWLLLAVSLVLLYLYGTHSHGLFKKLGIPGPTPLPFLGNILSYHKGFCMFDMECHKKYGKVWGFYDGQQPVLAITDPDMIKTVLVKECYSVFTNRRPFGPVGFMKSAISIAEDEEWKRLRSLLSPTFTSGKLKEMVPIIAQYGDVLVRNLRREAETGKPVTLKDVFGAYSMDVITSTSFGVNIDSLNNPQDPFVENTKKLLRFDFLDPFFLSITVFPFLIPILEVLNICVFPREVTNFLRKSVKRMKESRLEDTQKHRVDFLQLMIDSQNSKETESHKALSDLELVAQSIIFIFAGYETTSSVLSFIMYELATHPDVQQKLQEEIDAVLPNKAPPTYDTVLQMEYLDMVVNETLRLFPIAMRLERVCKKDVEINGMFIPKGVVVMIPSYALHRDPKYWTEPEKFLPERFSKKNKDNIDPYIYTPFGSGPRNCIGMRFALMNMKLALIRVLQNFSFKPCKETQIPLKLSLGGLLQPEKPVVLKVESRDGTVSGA
# mice [2] = assay: Dietary carcinogenicity study; format: in vivo; details: 2000 mg/kg/day
# Protocol: (§1) These doses are about 2.6 and 5.4 times the recommended human dose of granulated mesalamine capsules of 1.5 g/day (30 mg/kg if 50 kg body weight assumed or 1110 mg/m^2), respectively, based on body surface area. Mesalamine was negative in the Ames test, the mouse lymphoma cell (L5178Y/TK+/−) forward mutation test, the sister chromatid exchange assay in the Chinese hamster bone marrow test, and the mouse bone marrow micronucleus test.
# rats [3] = assay: Dietary carcinogenicity study; format: in vivo; details: doses as high as 480 mg/kg/day
# Protocol: as §1
# Ames test = format: cell-based
# Protocol: as §1
# [4] = tested on: mouse lymphoma cell (L5178Y/TK+/−); assay: Mouse lymphoma cell forward mutation test; format: cell-based
# Protocol: as §1
# [5] = tested on: Chinese hamster bone marrow; assay: Sister chromatid exchange assay in the Chinese hamster bone marrow test; details: in vivo
# Protocol: as §1
# rats [6] = assay: Fertility and reproductive performance study; format: in vivo; details: oral doses up to 320 mg/kg
# rats [7] = assay: 13-week and 26-week oral toxicity studies (renal toxicity); format: in vivo
# Source text: (§2) Animal studies with mesalamine (13-week and 26-week oral toxicity studies in rats, and 26-week and 52-week oral toxicity studies in dogs) have shown the kidney to be the major target organ of mesalamine toxicity.
# dogs = assay: 26-week and 52-week oral toxicity studies (renal toxicity); format: in vivo; details: oral 60 mg/kg/day (about 1.1 times the human dose) or higher
# Source text: as §2
# rats [8] = assay: Reproduction studies; details: rat, in vivo
# rabbits = assay: Reproduction studies; details: rabbit, in vivo
# [9] = Detection in human breast milk; details: in vivo
# [10] = Steady state pharmacokinetics, 3 treatments of 4 days: Asacol 800 mg BID, granulated mesalamine formulation 800 mg BID and 1600 mg QD; format: in vivo, human; details: for Tmax: median (range); for AUC: read-out: AUC
# Protocol: In a study of 3 treatments in 3 study periods, each separated by a minimum washout of 7 days, treatments were administered orally, and were as follows:
# Subjects received treatments A, B, and C, with each administered during one of the three 4-day study treatment periods.
# Each treatment regimen lasted for 4 days and was followed by at least a 7 day washout period.
# [11] = human, in vivo
# mice [12] = details: mouse, in vivo
# rats [13] = details: rat, in vivo
# [14] = human, in vivo, 1600 mg
# clinical [15] = details: human, in vivo
# clinical [16] = details: human, in vivo, 1600 mg
# [17] = In vitro plasma protein binding
# [18] = Single and multiple oral dose pharmacokinetics of 1.5 g granulated mesalamine formulation, crossover, healthy subjects, fasting; details: single dose 1.5 g; harmonic mean (pseudo SD)
smiles,measurement,setting,value
"Nc1ccc(O)c(C(=O)O)c1 [Mesalamine (5-ASA), 5-aminosalicylic acid]",Increase in AUC0-inf following a high-fat meal,[1]; 1.6 g granulated mesalamine,11%
same,Increase in AUC0-last following a high-fat meal,[1]; 1.6 g granulated mesalamine,16%
same,Tmax following a high-fat meal,[1]; 1.6 g granulated mesalamine (2×0.8 g),prolonged
same,Increase in cumulative urinary excretion with a high fat meal,[1]; 1.6 g granules,27%
same,Effect of high fat meal on plasma Cmax,"[1]; 1.6 g granules, listed as 5-ASA",did not affect
same,Effect of high fat meal on plasma Cmax,"[1]; 1.6 g granules, listed as mesalamine",equivalent
same,Inhibition of CYP1A2,CYP1A2,not to inhibit
same,Inhibition of CYP2C9,CYP2C9,not to inhibit
same,Inhibition of CYP2C19,CYP2C19,not to inhibit
same,Inhibition of CYP2D6,CYP2D6,not to inhibit
same,Inhibition of CYP3A4,CYP3A4,not to inhibit
same,Carcinogenicity,mice [2],not carcinogenic
same,Carcinogenicity,rats [3],not carcinogenic
same,Ames test result,Ames test,negative
same,Forward mutation test result,[4],negative
same,Sister chromatid exchange assay result,[5],negative
same,Effect on fertility or reproductive performance,rats [6],no effect
same,Renal finding,rats [7]; oral 40 mg/kg/day (about 0.20 times the human dose),minimal to slight tubular injury
same,Renal finding,rats [7]; oral 160 mg/kg/day (about 0.90 times the human dose) or higher,"renal lesions including tubular degeneration, tubular mineralization, and papillary necrosis"
same,Renal finding,dogs,"renal lesions including tubular atrophy, interstitial cell infiltration, chronic nephritis, and papillary necrosis"
same,Reproduction study finding,rats [8],no evidence of impaired fertility or harm to the fetus
same,Reproduction study finding,rabbits,no evidence of impaired fertility or harm to the fetus
same,Concentration detected in human breast milk,[9],low concentrations
same,Tmax,"[10]; Day 4, after Asacol 800 mg BID","16.0 (0, 24.0) h and 16.0 (0, 24.0)^e h"
same,"Steady state plasma concentrations as measured by Cmax, QD compared to BID",[10]; granulated mesalamine formulation,higher
same,"Systemic exposure, QD versus BID regimen",[10]; granulated mesalamine formulation 1600 mg QD vs 800 mg BID,comparable
same,"Time to maximum drug concentrations, mean",[10]; granulated mesalamine formulation administered BID,11.00 h
same,"Time to maximum drug concentrations, mean",[10]; granulated mesalamine formulation administered QD,3.96 h
same,AUC,"[10]; human, plasma, oral, 800 mg, AUCC, Day 4, after Asacol 800 mg BID, converted from μmol * h/L",8.34 ± 7.5 ng·h/mL
same,AUC,"[10]; human, plasma, oral, 800 mg, AUCC, Day 4, after MP 800 mg BID, converted from μmol * h/L",14800 ± 5500 ng·h/mL
same,AUC,"[10]; human, plasma, oral, 800 mg, AUCC, Day 4, after Treatment A Asacol 800 mg BID, mean ± SD",54.5 ± 49 µM·h
same,AUC,"[10]; human, plasma, oral, 800 mg, AUCC, Day 4, after Treatment B MP 800 mg BID, mean ± SD",97 ± 35.9 µM·h
same,Cmax,"[10]; human, plasma, oral, 800 mg, Day 4, after Asacol 800 mg BID, converted from μmol/L, mean ± SD",1060 ± 1370 ng/mL
same,Cmax,"[10]; human, plasma, oral, 800 mg, Day 4, after MP 800 mg BID, converted from μmol/L, mean ± SD",1820 ± 710 ng/mL
same,Cmax,"[10]; human, plasma, oral, 800 mg, plasma, Day 4, after Treatment A Asacol 800 mg BID, n = 28, mean ± SD",6.93 ± 8.99 µM
same,Cmax,"[10]; human, plasma, oral, 800 mg, plasma, Day 4, after Treatment B MP 800 mg BID, n = 28, mean ± SD",11.9 ± 4.65 µM
same,AUC,"[10]; human, plasma, oral, 1600 mg, AUC0-24, Day 4, after MP 1600 mg QD, converted from μmol * h/L",14800 ± 6490 ng·h/mL
same,AUC,"[10]; human, plasma, oral, 1600 mg, AUC0-24, Day 4, after Treatment C MP 1600 mg QD, mean ± SD",96.5 ± 42.4 µM·h
same,Cmax,"[10]; human, plasma, oral, 1600 mg, Day 4, after MP 1600 mg QD, converted from μmol/L, mean ± SD",3040 ± 1670 ng/mL
same,Cmax,"[10]; human, plasma, oral, 1600 mg, plasma, Day 4, after Treatment C MP 1600 mg QD, n = 28, mean ± SD",19.9 ± 10.9 µM
same,Tmax,"[10]; human, plasma, oral, Day 4, after MP 800 mg BID, time from first dose, read-out: Tmax",16 h
same,Tmax,"[10]; human, plasma, oral, Day 4, after MP 1600 mg QD, read-out: Tmax",3 h
same,Increase in systemic exposure (AUC0-24) at steady state compared with a single dose,[11],1.5 fold
same,Lethal single oral dose,mice [12],800 mg/kg
same,Lethal single oral dose,rats [13],1800 mg/kg
same,T1/2,[14],5.49 h
same,AUC(0-inf),clinical [15],14000 ± 5000 ng·h/mL
same,AUC(0-t),clinical [15]; AUC0-24,11000 ± 5000 ng·h/mL
same,Cmax,clinical [15]; Cmax,2100 ± 1100 ng/mL
same,Tmax,clinical [15]; Tmax,4 h
same,half-life,clinical [16],5.49 h
same,fraction unbound at 2.5 μg/mL,[17],0.57
same,t1/2,[18],9 ± 7 h
